Reference: patent US20250195530A1, “POLQ INHIBITORS” (ASTRAZENECA AB, priority 2022, published 2025)

Key:
DLD-1 BRCA2−/− cells = experiment: Homologous recombination synthetic lethal inhibition of proliferation, DLD-1 BRCA2-/- (Cell Titre Glo 3D); assay type: cell-based; conditions: Homo sapiens, DLD-1, 288 h, DLD-1 BRCA2−/− cells, 12 days; read-out: POLQ PD Prolif Lumin BRCA2 −/− mean pIC50 (converted)
How it was run: (§1)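 Cells are seeded in RPMI 1640 (phenol red free, 10% FBS, GlutaMAX) onto pre-dosed compound (10 μM to 0.51 nM, three-fold). Plates are incubated at 37 °C, and medium plus compound are refreshed on day 6. Viability is read by CellTiter-Glo 3D at day 7 (DLD-1) or day 12 (DLD-1 BRCA2−/−), and the IC50 is fitted.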

DLD-1 cells = experiment: Inhibition of proliferation, DLD-1 BRCA2 wt control (Cell Titre Glo 3D); assay type: cell-based; conditions: Homo sapiens, DLD-1, 168 h, DLD-1 BRCA2 wt cells, 7 days; read-out: POLQ PD Prolif Lumin DLD1 mean pIC50 (converted)
How it was run: as §1

| Structure (SMILES) | IC50 (DLD-1 cells) [µM] | IC50 (DLD-1 BRCA2−/− cells) [µM] |
| --- | --- | --- |
| CC1(Oc2ccnc3c2nc(-c2ccc(OCCN4CCNCC4)cc2Cl)n3Cc2ccccn2)CCC1 [Example P3, 2-(2-chloro-4-(2-(piperazin-1-yl)ethoxy)phenyl)-7-(1-methylcyclobutoxy)-3-(pyridin-2-ylmethyl)-3H-imidazo[4,5-b]pyridine] | > 10 | 2 |
| CC1(Oc2ccnc3c2nc(-c2ccc(OCCN4CCNCC4)cc2Cl)n3Cc2ccccc2)CCC1 [Example P4, 3-benzyl-2-(2-chloro-4-(2-(piperazin-1-yl)ethoxy)phenyl)-7-(1-methylcyclobutoxy)-3H-imidazo[4,5-b]pyridine] | 1.26 | 0.316 |
| C#CC1(Oc2ncnc3c2nc(-c2ccc(OCCN4CCNCC4)cc2Cl)n3Cc2ccccc2)CCC1 [Example Q3, 9-benzyl-8-(2-chloro-4-(2-(piperazin-1-yl)ethoxy)phenyl)-6-(1-ethynylcyclobutoxy)-9H-purine] | 5.01 | 0.251 |
| CC1(Oc2ncnc3c2nc(-c2ccc(OCCN4CC5CCC(C4)N5)cc2Cl)n3Cc2ccccc2)CC1 [Example R4, 8-(4-(2-(3,8-diazabicyclo[3.2.1]octan-3-yl)ethoxy)-2-chlorophenyl)-9-benzyl-6-(1-methylcyclopropoxy)-9H-purine] | 3.16 | 0.126 |
| CC1(Oc2ncnc3c2nc(-c2ccc(OCCN4CC5CC(C4)N5)cc2Cl)n3Cc2ccccc2)CC1 [Example R5, 3-(2-(4-(9-benzyl-6-(1-methylcyclopropoxy)-9H-purin-8-yl)-3-chlorophenoxy)ethyl)-3,6-diazabicyclo[3.1.1]heptane] | 3.98 | 0.1 |

Further lines, with some results ahead:

| IC50 (DLD-1 cells) [µM] | Structure (SMILES) | IC50 (DLD-1 BRCA2−/− cells) [µM] |
| --- | --- | --- |
| > 10 | C#CC1(Oc2ncnc3c2nc(-c2ccc(OCCN4CCNCC4)cc2Cl)n3Cc2ccccc2)CC1 [Example Q1, 9-benzyl-8-(2-chloro-4-(2-(piperazin-1-yl)ethoxy)phenyl)-6-(1-ethynylcyclopropoxy)-9H-purine] | 0.316 |
| 2 | CCC1(Oc2ncnc3c2nc(-c2ccc(OCCN4CCNCC4)cc2Cl)n3Cc2ccccc2)CC1 [Example Q2, 9-benzyl-8-(2-chloro-4-(2-(piperazin-1-yl)ethoxy)phenyl)-6-(1-ethylcyclopropoxy)-9H-purine] | 0.398 |
| 2 | Clc1cccc(Cn2c(-c3ccc(OCCN4CCNCC4)cc3Cl)nc3c(OC4CC4)ncnc32)c1 [Example Q4, 8-(2-chloro-4-(2-(piperazin-1-yl)ethoxy)phenyl)-9-(3-chlorobenzyl)-6-cyclopropoxy-9H-purine] | 0.2 |
| 6.31 | N#CC1(Oc2ncnc3c2nc(-c2ccc(OCCN4CCNCC4)cc2Cl)n3Cc2cccc(Cl)c2)CC1 [Example Q5, 1-((8-(2-chloro-4-(2-(piperazin-1-yl)ethoxy)phenyl)-9-(3-chlorobenzyl)-9H-purin-6-yl)oxy)cyclopropane-1-carbonitrile] | 0.158 |
| > 10 | CC1(Oc2ncnc3c2nc(-c2ccc(OCCN4CC5(CC(O)C5)C4)cc2Cl)n3Cc2cc(Cl)ccn2)CC1 [Example R1, 2-(2-(3-chloro-4-(9-((4-chloropyridin-2-yl)methyl)-6-(1-methylcyclopropoxy)-9H-purin-8-yl)phenoxy)ethyl)-2-azaspiro[3.3]heptan-6-ol] | 0.126 |
| > 10 | CC1(Oc2ncnc3c2nc(-c2ccc(OCCN4CC[C@@H](O)C4)cc2Cl)n3Cc2cc(Cl)ccn2)CC1 [Example R2, (R)-1-(2-(3-chloro-4-(9-((4-chloropyridin-2-yl)methyl)-6-(1-methylcyclopropoxy)-9H-purin-8-yl)phenoxy)ethyl)pyrrolidin-3-ol] | 0.126 |
| 3.16 | C[C@H]1CN(CCOc2ccc(-c3nc4c(OC5(C)CC5)ncnc4n3Cc3ccccc3)c(Cl)c2)CCN1 [Example R3, (S)-9-benzyl-8-(2-chloro-4-(2-(3-methylpiperazin-1-yl)ethoxy)phenyl)-6-(1-methylcyclopropoxy)-9H-purine] | 0.0631 |
